Data: ChEMBL document CHEMBL5385923, “HPPO-Derived Meroterpenoids from the Marine-Derived Fungus Penicillium sp. SCSIO 41691” (J Nat Prod, 2024)

Tests used:
[1] = tested on: NCI-H1975; assay: Cytotoxicity against human NCI-H1975 cells assessed as inhibition of cell growth incubated for 24 hrs by CCK-8 assay; assay type: functional, cell-based; conditions: NCI-H1975, 24 h
[2] = tested on: RAW264.7; assay: Antiinflammatory activity in LPS induced mouse RAW264.7 cells assessed as inhibition of NO production at 25 uM pretreated for 2 hrs followed by LPS stimulation and measured after 24 hrs by Griess reagent based assay relative to control; assay type: functional; conditions: time 26 hrs
[3] = Cytotoxicity against mouse RAW264.7 cells assessed as reduction in cell viability incubated for 2 hrs by MTT assay; assay type: toxicity, cell-based
[4] = tested on: RAW264.7; assay: Antiinflammatory activity in LPS induced mouse RAW264.7 cells assessed as inhibition of NO production pretreated for 2 hrs followed by LPS stimulation and measured after 24 hrs by Griess reagent based assay; assay type: functional, cell-based

Compound | IC50 [1] | inhibition at 25 µM [2] | CC50 at 2 h [3] | IC50 [4]
COc1ccc(-c2cc3c(c(=O)o2)C[C@H]2[C@@](C)(CC[C@@]45O[C@@](O)(OC4(C)C)[C@H](O)C[C@]25C)O3)cc1 | > 80 µM | 0% |  | 
COc1ccc2c(c1)c(CC(=O)O)c(C)n2C(=O)c1ccc(Cl)cc1 [INDOMETHACIN] |  | 57% | > 50 µM | 24 µM
COc1ccc(-c2cc3c(c(=O)o2)C[C@]2(O)[C@@]4(C)[C@H](O)C[C@@H](OC(C)=O)C(C)(C)[C@]4(O)CC[C@@]2(C)O3)cc1 | > 80 µM | 2.5% |  | 
COc1ccc(-c2cc3c(c(=O)o2)C[C@]24O[C@]25[C@H](C)C[C@@H](O)C(C)(C)[C@]5(O)CC[C@@]4(C)O3)cc1 | > 80 µM | 6.3% |  | 
COc1cc(-c2cc3c(c(=O)o2)C[C@]2(O)[C@@]45CO[C@@H](CC4=O)C(C)(C)[C@]5(O)CC[C@@]2(C)O3)cc2c1OCO2 | 15 µM | 11% |  | 
COc1ccc(-c2cc3c(c(=O)o2)C[C@H]2[C@@](C)(CC[C@@]4(O)C(C)(C)OC(=O)[C@H](O)C[C@]24C)O3)cc1 | > 80 µM | 7.6% |  | 
COc1ccc(-c2cc3c(c(=O)o2)C[C@]2(O)[C@@]45CO[C@@H](CC4=O)C(C)(C)[C@]5(O)CC[C@@]2(C)O3)cc1OC | > 80 µM | 62% | > 50 µM | 21 µM
COc1ccc(-c2cc3c(c(=O)o2)C[C@H]2[C@@](C)(CC[C@@]4(O)C(C)(C)C(=O)C=C[C@]24C)O3)cc1 | > 80 µM | 35% |  | 
COc1ccc(-c2cc3c(c(=O)o2)C[C@]2(O)[C@@]45O[C@]4(CC[C@@]2(C)O3)C(C)(C)[C@H](O)C[C@H]5C)cc1 | 67 µM | 32% |  | 
COc1cc(-c2cc3c(c(=O)o2)C[C@]2(O)[C@@]45CO[C@@H](CC4=O)C(C)(C)[C@]5(O)CC[C@@]2(C)O3)cc(OC)c1OC | > 80 µM | 22% |  | 
